According to patent publication US20080081781A1, “Methods and compositions for the treatment of metabolic syndrome” (priority 2004, published 2008):
Structures can show the parent of a compound that is named as a salt. Where two headings read alike, the source gives them in different places.

Tests used:
[1] = Distill Water; amount of solute 10 mg
[2] = Pharmacokinetics of 3H-berberine in rabbits, intravenous and intravenous drip
Method: 0.1 ml of blood was removed at various times and radiation emissions were measured.

[3] = Tissue distribution of 3H-berberine in mice; type: in vivo, mouse; details: tail vein 135 LBq/10 g, 5 minutes to 2 hours
Method: Tissue radiation emission was measured 5 minutes to 2 hours after administration with the distribution of the berberine concentrations from highest to lowest being: lung>liver>kidney>spleen>heart>intestine>stomach>brain.

[4] = Excretion of berberine in rats (urine, fecal matter, gall bladder secretions); type: in vivo, rat; details: rats, oral 3H-berberine, forty-eight hours
Method: In a final series of animal model studies, rats were orally administered 3H-berberine. Forty-eight hours after administration, excretions were tested for the presence of berberine. 2.7% of the oral dose was measured in the urine and 86% of the oral dose was measured in the fecal matter.
Rats received intravenous berberine (9.25 MBq/kg). Six days accumulation of rat urine and fecal secretions were measured for the presence of berberine. 73% of the intravenous dose of the berberine was found in the accumulated urine in both metabolized and unmetabolized forms. 10.9% of the intravenous dose was found in the fecal matter.
Three rats were given berberine (9.25 MBq/kg) intravenously. After 24 hours, gall bladder secretions were collected and evaluated for the presence of berberine. There was 10.1±0.9% (x±SD, n=3) of berberine in the gall bladder secretions.

hyperlipidemia patients = details: three months
Method: After three months, fasting serum concentrations of cholesterol, triglycerides, HDL and LDL were measured using standard blood lipid tests.

rat model subjects = test: Combinatorial anti-hyperlipidemia efficacy of berberine and lovastatin in rats (Table 9); type: in vivo
[5] = system: patients with type 2 diabetes; type: in vivo, human; details: patients with type 2 diabetes, Mean ± SE
Text: Ninety-seven hyperglycemic patients (54 males and 43 females) with fasting blood glucose>7 mmol/L and post-prandial blood glucose>11.1 mmol/L were enrolled in a study at the Nanjing First Hospital in Nanjing, China. The patients were asked to end any current treatments for hyperglycemia at least 2 weeks prior to commencement of the study.
Fifty of the patients (male/female, 27/23; age 57±8y) were randomly assigned to be given 0.5 gram twice a day (1g/day total) of berberine (Nanjing Second Pharmaceutics, Inc., Nanjing, China), orally for 2 months. Out of these 50 patients, 25 had hyperlipidemia, 9 had hypertension and 2 had cardiovascular disease. Twenty-six patients (male/female, 15/11; age 56±11 y) were given 1.5 grams of metformin (Double-Crane Pharmaceutical, Inc., Beijing, China) per day, orally for two months. Of these twenty-six patients, 11 had hyperlipidemia, and four had hypertension. The remaining twenty-one patients (male/female, 11/10, age 49±10 y) were given 4 mg per day of rosiglitazone (Glaxowelcome, UK), orally for two months. Of these 21 patients, ten had hyperlipidemia and four had hypertension. Metformin and rosiglitazone served as reference controls as they are standard treatments for type 2 diabetes.
Blood samples were taken prior to the commencement of therapy and after completion of the therapy.

InsR mRNA = test: Kinase inhibitors on berberine-induced InsR gene transcription in HepG2 cells (RT-PCR); type: cell-based, human; details: HepG2, inhibitor 1 hour before 7.5 μg berberine 8 hours; calphostin C 0.2 μM
Method: (§1) To explore the pathway responsible for the berberine-induced InsR gene transcription, different kinase inhibitors were used, including the MEK1-ERK inhibitor U0126, the p38 kinase inhibitor SB203580, the c-Jun N-terminal kinase inhibitor curcumin, the PI-3 kinase inhibitor wortmannin, and the PKC inhibitor calphostin C.
(§2) HepG2 cells were pretreated with each of the inhibitors 1 hour prior to treatment with 7.5 μg of berberine for 8 hours. Total RNA was then isolated and the relative amount of InsR and LDLR mRNA was measured by quantitative RT-PCR as described in Example XVII. It was determined that the activity of berberine on InsR gene transcription was most sensitive to the PKC inhibitor calphostin C.

LDLR mRNA = test: Kinase inhibitors on berberine-induced LDLR mRNA in HepG2 cells (RT-PCR); type: cell-based, human; details: HepG2, inhibitor 1 hour before 7.5 μg berberine 8 hours; calphostin C 0.2 μM
Method: as §1, §2

[6] = system: high fat high cholesterol (HFHC) diet rats; test: Combination treatment with berberine and simvastatin in HFHC diet rats (Table 8); type: in vivo, rat; details: oral, after 25 days, daily dose berberine 100 mg/kg, simvastatin 25 mg/kg, combination 100 + 25, average ± standard error
Method: Rats were fed a high fat high cholesterol (HFHC) diet for 10 days, and then divided into groups of seven. The rats were then administered berberine or simvastatin, or a combination of berberine and simvastatin orally for 25 days. After 25 days, serum cholesterol, triglyceride and LDL-c levels were measured. […] The combination of simvastatin, and berberine lowered the cholesterol, triglyceride and LDL-c levels further than either alone.

InsR gene promoter = test: InsR promoter activity, pGL3-1.5kIRP transfected HepG2 cells; type: cell-based, human; details: pGL3-1.5kIRP transfected HepG2; calphostin C 0.2 μM, berberine 5 μg/ml
Method: The InsR promoter luciferase gene fusion plasmid (pGL3-1.5kIRP) was kindly provided by Dr. Araki E of the Graduate School of Medical Sciences, Kumamoto University, Honjo, Kumamoto, Japan.
After overnight incubation, the cells were treated with DMSO as the solvent control or with 0, 1, 2.5, 5, 7.5 and 10 μg/ml berberine for 8 h. Cell lysates were prepared and luciferase activities were measured using the Luciferase Reporter Gene Assay (Roche Applied Science). The experiment was repeated 4 times.

LDLR promoter = LDLR promoter activity, pLDLR234Luc reporter in HepG2 cells; type: cell-based, human; details: pLDLR234Luc HepG2, LPDS or LPDS and cholesterol medium, 8 hour treatment
Text: HepG2 cells were transfected with the reporter construct pLDLR234Luc, which contains the SRE- I motif and the sterol-independent regulatory element that mediates the cytokine oncostatin M-induced transcription of the LDLR gene.

[7] = 0.5 g twice a day, all treated patients (n=63)
[8] = only participants neither on drugs nor special diets
[9] = high fat diet rats treated for 15 days, berberine 80 mg/kg/day, lovastatin 10 mg/kg/day
[10] = high fat diet rats, Day 0 (untreated rats, baseline)
[11] = After treatment (2 months), oral: berberine 1 g/day, metformin 1.5 g/day, rosiglitazone 4 mg/day

COc1ccc2cc3[n+](cc2c1OC)CCc1cc2c(cc1-3)OCO2.CS(=O)(=O)[O-] [6. Methanesulfonate]
Amount of Solvent [1]: 1.5

COc1ccc2cc3[n+](cc2c1OC)CCc1cc2c(cc1-3)OCO2.O=C([O-])c1ccccc1 [13. Benzoate]
Amount of Solvent [1]: 7.0

COc1ccc2cc3[n+](cc2c1OC)CCc1cc2c(cc1-3)OCO2.O=C([O-])C(F)(F)F [16. Trifluoroacetate]
Amount of Solvent [1]: 7.5

3H-berberine
Vd ([2]; 5 rabbits, intravenously 25 MBq/kg): 20 ± 3 L/kg
Vd ([2]; four rabbits, intravenous drip 46.25 Mbq/kg): 22.1 ± 1.7 L/kg
distribution of concentrations in tissues, highest to lowest [3]: lung>liver>kidney>spleen>heart>intestine>stomach>brain
oral dose measured in the fecal matter [4]: 86%
oral dose measured in the urine [4]: 2.7%

CC(=O)[O-].COc1ccc2cc3[n+](cc2c1OC)CCc1cc2c(cc1-3)OCO2 [3. Acetate]
Amount of Solvent [1]: 9.0

COc1ccc2cc3[n+](cc2c1OC)CCc1cc2c(cc1-3)OCO2.COc1ccc2cc3[n+](cc2c1OC)CCc1cc2c(cc1-3)OCO2.O=S(=O)([O-])[O-] [8. Sulfate]
Amount of Solvent [1]: 0.5

COc1ccc2cc3[n+](cc2c1OC)CCc1cc2c(cc1-3)OCO2.Cc1ccc(S(=O)(=O)[O-])cc1 [15. Toluenesulfonate]
Amount of Solvent [1]: 11.0

COc1ccc2cc3[n+](cc2c1OC)CCc1cc2c(cc1-3)OCO2 [berberine hydrochloride]
lowering of serum LDL (hyperlipidemia patients; [7]): 20%
lowering of serum cholesterol (hyperlipidemia patients; [7]): 18%
lowering of serum triglycerides (hyperlipidemia patients; [7]): 28%
decrease of serum LDL (hyperlipidemia patients; [8]): 25%
decrease of serum cholesterol (hyperlipidemia patients; [8]): 29%
decrease of serum triglycerides (hyperlipidemia patients; [8]): 35%

CC[C@H](C)C(=O)O[C@H]1C[C@@H](C)C=C2C=C[C@H](C)[C@H](CC[C@@H]3C[C@@H](O)CC(=O)O3)[C@H]21 [lovastatin, reference compound]
Cholesterol Day 15 (rat model subjects; [9]): 2.7 mmol/L
LDL Day 15 (rat model subjects; [9]): 1.62 mmol/L
Cholesterol Day 0 (rat model subjects; [10]): 3.6 mmol/L
LDL Day 0 (rat model subjects; [10]): 2.15 mmol/L

COc1ccc2cc3[n+](cc2c1OC)CCc1cc2c(cc1-3)OCO2.O=S(=O)([O-])O [7. Hydrosulfate]
Amount of Solvent [1]: 1.5

CN(CCOc1ccc(CC2SC(=O)NC2=O)cc1)c1ccccn1 (stereo not drawn) [rosiglitazone, reference compound]
HbA1c [5, 11]: 6.8 ± 0.3 %
Triglyceride [5, 11]: 1.6 ± 0.1 mmol/L
FBG (fasting blood glucose) ([5]; Before treatment (baseline)): 9.1 ± 0.8 mmol/L
HbA1c ([5]; Before treatment (baseline)): 8.3 ± 0.4%
Triglyceride ([5]; Before treatment (baseline)): 1.9 ± 0.3 mmol/L

CN(C)C(=N)N=C(N)N [metformin, reference compound]
HbA1c [5, 11]: 7.2 ± 0.3 %
Triglyceride [5, 11]: 1.6 ± 0.1 mmol/L
FBG (fasting blood glucose) ([5]; Before treatment (baseline)): 10.9 ± 0.5 mmol/L
HbA1c ([5]; Before treatment (baseline)): 9.4 ± 0.5%
Triglyceride ([5]; Before treatment (baseline)): 1.7 ± 0.2 mmol/L

N#CC(=C(/N)Sc1ccccc1N)/C(C#N)=C(\N)Sc1ccccc1N [U0126]
effect of inhibitor on the activity of berberine on InsR gene transcription (InsR mRNA): did not effect
effect of inhibitor on berberine-increased level of LDLR mRNA (LDLR mRNA): completely abolished

CC(O)C(=O)[O-].COc1ccc2cc3[n+](cc2c1OC)CCc1cc2c(cc1-3)OCO2 [4. Lactate]
Amount of Solvent [1]: 6.0

CCC(C)(C)C(=O)O[C@H]1C[C@@H](C)C=C2C=C[C@H](C)[C@H](CC[C@@H]3C[C@@H](O)CC(=O)O3)[C@H]21 [simvastatin, reference compound]
LDL-c [6]: 1.4 ± 0.1 mmol/L
Total Cholesterol [6]: 3.6 ± 0.4 mmol/L
Triglyceride [6]: 2.5 ± 0.3 mmol/L

Calphostin C
effect of PKC inhibitor pre-treatment on berberine stimulation of InsR gene promoter (InsR gene promoter): diminished the ability of berberine to stimulate the InsR gene promoter
effect of inhibitor on the activity of berberine on InsR gene transcription (InsR mRNA): completely eliminated
effect of inhibitor on berberine-increased level of LDLR mRNA (LDLR mRNA): did not change

B1: oncostatin M: cytokine oncostatin M that induces transcription of the LDLR gene (protein, UniProt P13725 26-221, looked up)
Oncostatin-M: AAIGSCSKEYRVLLGQLQKQTDLMQDTSRLLDPYIRIQGLDVPKLREHCRERPGAFPSEETLRGLGRRGFLQTLNATLGCVLHRLADLEQRLPKAQDLERSGLNIEDLEKLQMARPNILGLRNNIYCMAQLLDNSDTAEPTKAGRGASQPPTPTPASDAFQRKLEGCRFLHGYHRFMHSVGRVFSKWGESPNRSRR
LDLR promoter activity (LDLR promoter): strongly elevated
